# Assay results published in patent publication EP0643964A2 (priority 1993, dated 1995).
# “And” between values parts separate entries of the source, which are not always exact repeats. Identical values can stand only once.
# Columns and labels:
# [1] = test system: herpes simplex; assay: Evolution of recidivant periorificial herpes simplex infection in volunteers; type: in vivo, human
# Protocol: Patients were divided into 3 groups: one of the groups (n=4) received acyclovir by oral route and topical applications of the same drug. […] Experiments began with the appearance of the next episode of herpes, just in the moment when vesicles appeared.
# All these patients were controlled monthly during the following 4 months. During this time, group A patients presented episodes with a pattern similar to that they had before the experiment was performed. […] The remaining two presented an episode of herpes 2.8 and 3.3 months later.
# [2] = test system: M3 tumor; assay: M3 transplanted mice, tumor area (lidocaine and epidoxorrubicine); type: in vivo
# [3] = test system: Giardia lamblia; assay: Patients with malabsorption syndrome (MAS) caused by Giardia lamblia; type: in vivo, human; conditions: Volunteer # 1, 7 days of treatment; recurrence one month later
# From the text: Volunteer # 1: Type II MAS with positive isolation of Giardia lamblia in duodenal washings and confirmation of the disease by histopathology. […] One month later, patient 1 presented symptoms and signs of recurrence of the disease, with positive isolation of parasites in feces.
# Volunteer # 2: with diffuse abdominal pain, loss of body weight and steatorrhea.
# [4] = in vivo; cited from earlier work
# [5] = biological target: pseudocholines-terase (Homo sapiens, UniProt P06276); conditions: cited from earlier work
# Chain of pseudocholines-terase (P06276 29-602, species assumed): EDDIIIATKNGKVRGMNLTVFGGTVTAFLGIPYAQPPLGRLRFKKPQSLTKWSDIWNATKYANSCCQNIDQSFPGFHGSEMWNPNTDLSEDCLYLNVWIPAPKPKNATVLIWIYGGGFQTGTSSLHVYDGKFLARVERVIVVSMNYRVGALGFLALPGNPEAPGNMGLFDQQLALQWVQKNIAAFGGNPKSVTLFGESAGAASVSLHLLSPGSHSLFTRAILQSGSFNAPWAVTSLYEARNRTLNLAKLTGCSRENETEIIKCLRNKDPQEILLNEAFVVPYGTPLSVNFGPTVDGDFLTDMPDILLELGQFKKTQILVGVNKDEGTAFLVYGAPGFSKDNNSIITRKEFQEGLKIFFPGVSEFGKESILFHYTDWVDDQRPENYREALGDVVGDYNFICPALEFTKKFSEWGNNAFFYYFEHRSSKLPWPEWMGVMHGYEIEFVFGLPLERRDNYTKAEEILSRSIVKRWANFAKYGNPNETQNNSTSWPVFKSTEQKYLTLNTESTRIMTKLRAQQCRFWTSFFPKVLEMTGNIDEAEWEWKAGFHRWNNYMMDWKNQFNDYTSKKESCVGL
# [6] = global anesthesia by intravenous route; one death in more than 6200 patients; cited from earlier work
# [7] = herpes simplex episode, ACV oral+topical, lidocaine 5 ml 2% i.v. twice a day 2 days
compound,measurement,setting,value
"Nc1nc2c(ncn2COCCO)c(=O)[nH]1 [ACV, acyclovir]",Duration of lesions,[1]; [7],7 days
same,Duration of symptoms,[1]; [7],4 days
same,FIRST EPISODE AFTER TREATMENT,"[1]; individual patients, followed monthly for 4 months",31 d. and 29 d d. and 33 d d. and 40 d.
COc1cccc2c1C(=O)c1c(O)c3c(c(O)c1C2=O)C[C@@](O)(C(=O)CO)C[C@@H]3O[C@H]1C[C@H](N)[C@@H](O)[C@H](C)O1 [epidoxorrubicine],Area (tumor),"[2]; day 7 p-t (day 0), lidocaine 0.1 ml 0.05% every 7 days, epidoxorrubicine 0.125 ml 0.2% every 7 days, combination: lidocaine 2 days after epidoxorrubicine",0.46
same,Area (tumor),"[2]; day 10 p-t, regimens as Table 5 footnotes, saline control 0.92",0.90
same,I/Ø: Percentual increment over tumor in day 0 (day 7 p-t),"[2]; day 10 p-t, saline control 103.47",95.65%
same,Area (tumor),"[2]; day 12 p-t, regimens as Table 5 footnotes, saline control 1.56",1.56
same,I/Ø: Percentual increment over tumor in day 0 (day 7 p-t),"[2]; day 12 p-t, saline control 245.61",238.04%
same,Area (tumor),"[2]; day 14 p-t, regimens as Table 5 footnotes, saline control 2.06",2.36
same,I/Ø: Percentual increment over tumor in day 0 (day 7 p-t),"[2]; day 14 p-t, saline control 357.57",413.04%
same,I/Ø: Percentual increment over tumor in day 0 (day 7 p-t),"[2]; day 16 p-t, saline control 516.74",316.30%
same,Area (tumor),"[2]; day 18 p-t, regimens as Table 5 footnotes, saline control 3.61",2.41
same,I/Ø: Percentual increment over tumor in day 0 (day 7 p-t),"[2]; day 18 p-t, saline control 701.39",422.83%
same,Area (tumor),"[2]; day 21 p-t, regimens as Table 5 footnotes, saline control 4.61",3.39
same,I/Ø: Percentual increment over tumor in day 0 (day 7 p-t),"[2]; day 21 p-t, saline control 923.86",637.68%
same,Area (tumor),"[2]; day 23 p-t, regimens as Table 5 footnotes, saline control 5.49",3.57
same,I/Ø: Percentual increment over tumor in day 0 (day 7 p-t),"[2]; day 23 p-t, saline control 1119.69",676.81%
same,Area (tumor),"[2]; day 25 p-t, regimens as Table 5 footnotes, saline control 6.24",4.16
same,I/Ø: Percentual increment over tumor in day 0 (day 7 p-t),"[2]; day 25 p-t, saline control 1286.33",804.35%
same,Area (tumor),"[2]; mouse, in vivo",1.92
Cc1ncc([N+](=O)[O-])n1CCO [metronidazole],Clinical evolution,[3],good evolution
CCN(CC)CCOC(=O)c1ccc(N)cc1 [procaine],half life,[4],about 0.7 minutes
same,cleavage rate,[5]; hydrolysis in blood plasma and liver,20 mg. per minute
same,deaths,[6],less than 0.01%
CCCCNc1ccc(C(=O)OCCN(C)C)cc1 [tetracaine],velocity of cleavage relative to procaine,[5],about 5 times more slowly than procaine
